The values below are quoted from earlier work in US7407975B2, “Epothilone derivatives, method for producing same and their pharmaceutical use” (priority 1997, dated 2008).

For the data set, the system named is P-glycoprotein-forming multiresistant tumor lines. The note with it: in comparison to taxol.

`C/C(=C\c1csc(C)n1)[C@@H]1C[C@@H]2O[C@@H]2CCC[C@H](C)[C@H](O)[C@@H](C)C(=O)C(C)(C)[C@@H](O)CC(=O)O1` [Epothilone A, epothilone A]: the “activity against P-glycoprotein-forming multiresistant tumor lines” value is given as “significantly higher activity”.

Take `C/C(=C\c1csc(C)n1)[C@@H]1C[C@@H]2O[C@]2(C)CCC[C@H](C)[C@H](O)[C@@H](C)C(=O)C(C)(C)[C@@H](O)CC(=O)O1` [Epothilone B, epothilone B]: the “activity against P-glycoprotein-forming multiresistant tumor lines” value is listed as “significantly higher activity”.
